Measurements: ChEMBL document CHEMBL1201862, “PubChem BioAssay data set” (2004)
Active and inactive are the calls of the source.

Experiments:
[1] = molecular target: Dual specificity protein phosphatase 3 (Homo sapiens, UniProt P51452); test: inhibition constants for human DUSP3 – biochemical, colorimetric, SAR follow-up (AID 2004)
[2] = molecular target: C-C chemokine receptor type 6 (Homo sapiens, UniProt P51684); test: antagonism of CCR6 beta-arrestin recruitment – cell-based, luminescent beta-arrestin readout, dose response (AID 504728); type: functional
Chain of C-C chemokine receptor type 6 (P51684 whole entry): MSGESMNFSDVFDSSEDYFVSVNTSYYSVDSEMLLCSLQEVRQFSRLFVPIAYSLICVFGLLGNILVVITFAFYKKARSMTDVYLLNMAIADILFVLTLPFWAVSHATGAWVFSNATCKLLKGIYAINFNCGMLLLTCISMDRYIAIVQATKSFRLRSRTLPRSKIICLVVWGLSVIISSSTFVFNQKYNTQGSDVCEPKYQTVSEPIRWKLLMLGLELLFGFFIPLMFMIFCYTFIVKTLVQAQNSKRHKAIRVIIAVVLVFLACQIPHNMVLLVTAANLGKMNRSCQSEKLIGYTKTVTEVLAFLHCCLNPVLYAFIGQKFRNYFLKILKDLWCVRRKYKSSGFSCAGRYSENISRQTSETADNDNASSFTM

Beta-galactosidase [3] = molecular target: T1, Beta-galactosidase (Escherichia coli, UniProt Q8VNN2); test: detection-enzyme interference by beta-gal modulators – biochemical, E. coli enzyme, set 3, artefact control for CCR6 antagonist project, dose response (AID 504712); type: functional
T1 sequence (Q8VNN2 whole entry): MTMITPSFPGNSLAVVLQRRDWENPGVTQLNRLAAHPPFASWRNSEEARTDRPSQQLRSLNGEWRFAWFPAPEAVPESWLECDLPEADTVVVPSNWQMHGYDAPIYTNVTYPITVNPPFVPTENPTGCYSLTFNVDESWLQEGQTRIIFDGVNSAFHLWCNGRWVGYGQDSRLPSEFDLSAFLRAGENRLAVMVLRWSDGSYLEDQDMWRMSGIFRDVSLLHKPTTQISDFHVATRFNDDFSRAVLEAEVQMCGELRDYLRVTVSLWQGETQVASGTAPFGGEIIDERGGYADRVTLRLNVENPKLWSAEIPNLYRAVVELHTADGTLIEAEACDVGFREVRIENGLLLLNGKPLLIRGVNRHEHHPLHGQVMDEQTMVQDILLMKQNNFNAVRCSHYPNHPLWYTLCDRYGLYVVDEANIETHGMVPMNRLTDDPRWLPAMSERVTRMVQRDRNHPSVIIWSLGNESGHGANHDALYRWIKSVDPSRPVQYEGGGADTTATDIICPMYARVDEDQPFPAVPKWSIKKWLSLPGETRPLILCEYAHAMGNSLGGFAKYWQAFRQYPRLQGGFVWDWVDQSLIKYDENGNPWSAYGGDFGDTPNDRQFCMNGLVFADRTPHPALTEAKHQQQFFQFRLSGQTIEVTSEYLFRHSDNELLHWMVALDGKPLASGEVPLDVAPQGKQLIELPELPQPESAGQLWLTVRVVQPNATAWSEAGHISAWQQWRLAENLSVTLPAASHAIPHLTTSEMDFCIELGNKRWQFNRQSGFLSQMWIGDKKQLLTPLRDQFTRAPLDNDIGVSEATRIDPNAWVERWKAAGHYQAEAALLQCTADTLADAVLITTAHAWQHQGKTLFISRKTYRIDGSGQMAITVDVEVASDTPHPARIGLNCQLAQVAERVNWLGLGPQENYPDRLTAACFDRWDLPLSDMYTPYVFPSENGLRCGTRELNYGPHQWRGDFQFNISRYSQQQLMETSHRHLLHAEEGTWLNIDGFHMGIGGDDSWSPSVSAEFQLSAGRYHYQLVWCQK

[4] = reduction of Shn3 3'UTR-driven luciferase in osteoblasts – cell-based, Clone20 osteoblasts, firefly luciferase, cherry-picked, dose response (AID 624132); type: functional;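 also: firefly luciferase luminescence from reporter carrying the Shn3 3'UTR in osteoblasts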
[5] = loss of viability in HepG2 cells – cell-based, CellTiter-Glo, cherry-picked, cytotoxicity control for Shn3 inhibitor project, dose response (AID 624134); type: functional
[6] = non-specific 3'UTR reporter inhibition in Clone20-Shn3RL – cell-based, Renilla luciferase, cherry-picked, counter-screen for Shn3 inhibitor project, dose response (AID 624133); type: functional
Wee1-like protein kinase [7] = molecular target: T2, Wee1-like protein kinase (Homo sapiens, UniProt P30291); test: HeLa cell cycle G2/M accumulation – FACS, mechanism study for Wee1 degradation inhibitor project, late-stage follow-up, panel member Wee1 Degradation (AID 2088)
T2 sequence (P30291 whole entry): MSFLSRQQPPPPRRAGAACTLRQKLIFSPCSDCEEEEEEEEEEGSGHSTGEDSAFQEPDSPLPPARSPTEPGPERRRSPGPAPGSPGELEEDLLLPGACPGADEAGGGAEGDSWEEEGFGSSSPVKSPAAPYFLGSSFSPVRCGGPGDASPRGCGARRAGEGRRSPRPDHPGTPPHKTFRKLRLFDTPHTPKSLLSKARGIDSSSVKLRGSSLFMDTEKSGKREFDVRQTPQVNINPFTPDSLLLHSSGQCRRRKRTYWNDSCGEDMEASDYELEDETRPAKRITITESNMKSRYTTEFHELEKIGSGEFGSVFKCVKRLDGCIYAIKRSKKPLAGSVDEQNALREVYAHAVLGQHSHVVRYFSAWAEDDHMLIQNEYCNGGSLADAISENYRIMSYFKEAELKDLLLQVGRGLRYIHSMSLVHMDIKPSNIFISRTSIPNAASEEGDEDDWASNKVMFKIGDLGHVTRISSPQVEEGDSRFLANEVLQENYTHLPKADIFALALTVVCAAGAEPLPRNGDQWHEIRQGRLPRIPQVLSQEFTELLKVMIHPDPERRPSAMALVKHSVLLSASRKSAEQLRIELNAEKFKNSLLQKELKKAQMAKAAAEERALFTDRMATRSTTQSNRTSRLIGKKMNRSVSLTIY

[8] = molecular target: T3, G2/mitotic-specific cyclin-B1 (Homo sapiens, UniProt P14635); test: HeLa cell cycle G2/M accumulation – FACS, mechanism study for Wee1 degradation inhibitor project, late-stage follow-up, panel member Cyclin B Degradation (AID 2088)
T3 sequence (P14635 whole entry): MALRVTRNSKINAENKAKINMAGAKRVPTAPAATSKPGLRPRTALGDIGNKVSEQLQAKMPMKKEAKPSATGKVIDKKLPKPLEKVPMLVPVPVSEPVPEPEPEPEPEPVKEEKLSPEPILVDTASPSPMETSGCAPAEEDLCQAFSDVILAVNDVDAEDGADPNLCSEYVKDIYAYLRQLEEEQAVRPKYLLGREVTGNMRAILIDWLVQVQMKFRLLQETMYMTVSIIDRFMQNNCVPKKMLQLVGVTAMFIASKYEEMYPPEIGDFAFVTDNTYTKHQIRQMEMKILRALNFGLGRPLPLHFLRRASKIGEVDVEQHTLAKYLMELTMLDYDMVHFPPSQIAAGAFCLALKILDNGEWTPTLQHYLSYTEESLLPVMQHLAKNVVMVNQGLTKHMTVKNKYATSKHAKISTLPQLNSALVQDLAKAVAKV

[9] = molecular target: Voltage-gated N-type calcium channel alpha-1B subunit/Amyloid beta A4 precursor protein-binding family A member 1 (Homo sapiens, UniProt Q00975+Q02410); test: disruptors of Mint-PDZ/N-type channel peptide interaction – biochemical, HTRF, set 2, SAR follow-up (AID 434980); type: functional
[10] = molecular target: Melanin-concentrating hormone receptor 1 (Homo sapiens, UniProt Q99705); test: Fluorescence-based counterscreen for antagonists of the G-protein coupled receptor 7 (GPR7): cell-based high throughput dose response assay to identify antagonists of the melanin-concentrating hormone receptor 1 (MCHR1).; type: functional
[11] = Luminescence Cell-Based Dose Confirmation HTS to Identify Inhibitors of Platelet Dense Granule Release. [Related pubchem assays: 1663 (Primary HTS), 1678 (Summary of Project)]; type: functional
[12] = ADP-Glo luciferase signal interference – biochemical, luminescence, cherry-picked samples, set 2, artefact control for CDK5 inhibitor project, dose response (AID 504546); type: functional, cell-based
[13] = molecular target: Lysosomal acid glucosylceramidase (Homo sapiens, UniProt P04062); test: Dose response cell-based high throughput screening assay to identify enhancers of beta-glucosidase activity. [Related pubchem assays: 784 ]; type: functional
Chain of Lysosomal acid glucosylceramidase (P04062 whole entry): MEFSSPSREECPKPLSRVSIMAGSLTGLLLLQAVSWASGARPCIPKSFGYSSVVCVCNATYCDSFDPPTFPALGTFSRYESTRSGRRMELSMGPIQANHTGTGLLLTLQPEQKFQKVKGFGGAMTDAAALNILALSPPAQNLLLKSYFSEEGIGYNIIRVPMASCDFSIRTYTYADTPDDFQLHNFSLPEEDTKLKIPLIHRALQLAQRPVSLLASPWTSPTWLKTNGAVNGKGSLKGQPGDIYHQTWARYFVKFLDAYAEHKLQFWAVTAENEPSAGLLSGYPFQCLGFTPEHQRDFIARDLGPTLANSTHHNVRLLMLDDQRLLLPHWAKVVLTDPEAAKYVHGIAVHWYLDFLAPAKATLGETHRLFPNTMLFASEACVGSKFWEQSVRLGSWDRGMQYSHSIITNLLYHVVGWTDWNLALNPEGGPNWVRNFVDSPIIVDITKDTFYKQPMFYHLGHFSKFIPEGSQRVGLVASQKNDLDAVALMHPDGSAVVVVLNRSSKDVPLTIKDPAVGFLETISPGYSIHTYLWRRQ

[14] = molecular target: T3, G2/mitotic-specific cyclin-B1; test: Counterscreen assay for inhibitors of Wee1 degradation: dose response cell-based assay to identify inhibitors of cyclin B degradation. [Related pubchem assays: 1410, 1321 ]; type: functional
[15] = molecular target: Sphingosine 1-phosphate receptor 2 (Homo sapiens, UniProt O95136); test: Dose Response Cell Based Assay for Antagonists of the S1P2 Receptor. [Related pubchem assays: 856, 736 ]; type: functional
HeLa = test: Cytotoxicity counterscreen assay for transcriptional activators of heat shock protein 70 (Hsp70). [Related pubchem assays: 1203, 1252 ]; type: functional; settings: Homo sapiens;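 also: cells exposed to compound for 16 hours before readout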
Wee1-like protein kinase [16] = molecular target: T2, Wee1-like protein kinase; test: Dose Response Cell-based Assay for Inhibitors of Wee1 Degradation. [Related pubchem assays: 1410, 1321 ]; type: functional
Beta-galactosidase [17] = molecular target: T1, Beta-galactosidase; test: PubChem AID 485352; type: functional
[18] = molecular target: T4, Heat shock factor protein 1 (Mus musculus, UniProt P38532); test: decrease of HSF1-responsive luciferase luminescence – cell-based, NIH3T3, dose retest, confirmation (AID 2382); type: functional;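 also: NIH3T3 fibroblasts with HSF1-driven luciferase reporter stressed by proteasome inhibitor MG132; luminescence from HSF1-driven luciferase expression after 8 hours of MG132 stress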
T4 sequence (P38532 whole entry): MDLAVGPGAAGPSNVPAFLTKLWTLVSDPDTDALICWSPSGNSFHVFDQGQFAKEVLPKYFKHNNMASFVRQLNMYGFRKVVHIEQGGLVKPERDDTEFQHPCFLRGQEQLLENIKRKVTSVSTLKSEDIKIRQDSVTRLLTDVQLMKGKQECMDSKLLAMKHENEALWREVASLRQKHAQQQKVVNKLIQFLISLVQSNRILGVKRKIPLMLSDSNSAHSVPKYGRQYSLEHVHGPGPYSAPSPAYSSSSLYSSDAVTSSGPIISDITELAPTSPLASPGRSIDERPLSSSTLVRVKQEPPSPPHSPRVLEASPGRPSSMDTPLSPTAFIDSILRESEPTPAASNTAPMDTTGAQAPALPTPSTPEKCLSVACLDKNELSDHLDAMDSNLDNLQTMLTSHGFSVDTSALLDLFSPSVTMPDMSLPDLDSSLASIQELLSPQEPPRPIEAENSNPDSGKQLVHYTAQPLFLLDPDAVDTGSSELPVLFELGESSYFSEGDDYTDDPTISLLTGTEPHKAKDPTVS

[19] = microbe, parasite or virus in culture; type: functional; settings: Mycobacterium tuberculosis
[20] = molecular target: T5, Type-1 angiotensin II receptor (Homo sapiens, UniProt P30556); test: antagonism of angiotensin II type 1 receptor – cell-based, uHTS hits, selectivity assay for APJ receptor antagonist project, dose response (AID 463214); type: functional;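 also: antagonist potency against angiotensin II stimulated AT1 response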
T5 sequence (P30556 whole entry): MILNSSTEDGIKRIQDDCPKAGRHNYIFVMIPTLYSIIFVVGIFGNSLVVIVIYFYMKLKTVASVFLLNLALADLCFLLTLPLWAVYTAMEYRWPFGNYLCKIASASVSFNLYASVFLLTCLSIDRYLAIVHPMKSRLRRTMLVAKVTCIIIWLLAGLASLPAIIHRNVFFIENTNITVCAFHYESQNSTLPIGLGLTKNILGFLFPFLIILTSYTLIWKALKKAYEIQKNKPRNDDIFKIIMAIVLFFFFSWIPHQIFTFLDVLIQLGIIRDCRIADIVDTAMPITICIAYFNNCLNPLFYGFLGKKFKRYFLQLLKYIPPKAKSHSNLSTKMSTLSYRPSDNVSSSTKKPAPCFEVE

[21] = molecular target: Sphingosine 1-phosphate receptor 4 (Homo sapiens, UniProt O95977); test: Fluorescence dose response cell-based high throughput screening assay for antagonists of the Sphingosine 1-Phosphate Receptor 4 (S1P4). [Related pubchem assays: 1524 (Confirmation in triplicates.), 1510 (Primary screen.)]; type: functional
Chain of Sphingosine 1-phosphate receptor 4 (O95977 whole entry): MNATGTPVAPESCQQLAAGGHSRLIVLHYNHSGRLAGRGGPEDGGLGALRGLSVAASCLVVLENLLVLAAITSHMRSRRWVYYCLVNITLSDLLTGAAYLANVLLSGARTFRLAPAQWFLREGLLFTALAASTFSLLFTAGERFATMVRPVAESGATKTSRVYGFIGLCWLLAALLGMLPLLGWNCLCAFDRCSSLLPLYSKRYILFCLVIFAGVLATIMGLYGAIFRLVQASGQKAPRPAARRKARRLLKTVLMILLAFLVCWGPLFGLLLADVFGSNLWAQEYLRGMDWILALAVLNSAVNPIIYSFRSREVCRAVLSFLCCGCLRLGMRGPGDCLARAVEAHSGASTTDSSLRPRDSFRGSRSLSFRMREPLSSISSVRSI

[22] = molecular target: Sphingosine 1-phosphate receptor 1 (Homo sapiens, UniProt P21453); type: functional;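 also: Tango beta-arrestin reporter U2OS cells stimulated with S1P near its EC80; inhibitor potency meaning antagonism of receptor activation by the natural agonist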
Chain of Sphingosine 1-phosphate receptor 1 (P21453 whole entry): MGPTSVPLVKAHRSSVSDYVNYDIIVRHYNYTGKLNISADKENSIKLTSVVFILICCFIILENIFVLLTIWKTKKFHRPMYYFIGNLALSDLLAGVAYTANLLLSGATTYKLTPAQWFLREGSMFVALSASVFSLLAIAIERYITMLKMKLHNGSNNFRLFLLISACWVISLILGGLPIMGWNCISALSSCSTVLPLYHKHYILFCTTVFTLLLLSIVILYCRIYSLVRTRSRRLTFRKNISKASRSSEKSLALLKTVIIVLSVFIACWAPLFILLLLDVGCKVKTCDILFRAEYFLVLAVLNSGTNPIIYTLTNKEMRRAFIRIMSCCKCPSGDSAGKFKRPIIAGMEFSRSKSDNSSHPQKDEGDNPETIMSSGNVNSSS

[23] = HEK-293T viability loss after treatment – luminescence, T-cell screen hits, cytotoxicity control for TCR NF-kB inhibitor project, dose response (AID 489026); type: functional, cell-based;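 also: cells exposed to compound about 14 hours before the viability readout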
INS1 = test: INS-1E survival protection against cytokine death – cell-based, luminescence, retest, dose response (AID 449756); type: functional; settings: Rattus norvegicus;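 also: cell death triggered by IL-1 beta plus TNF-alpha plus IFN-gamma mixture; protective hits raise ATP signal compared with cytokine alone wells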
Aspartyl aminopeptidase = Aspartyl aminopeptidase (Plasmodium falciparum 3D7, UniProt Q8I2J3)
Chain of Aspartyl aminopeptidase (Q8I2J3 whole entry): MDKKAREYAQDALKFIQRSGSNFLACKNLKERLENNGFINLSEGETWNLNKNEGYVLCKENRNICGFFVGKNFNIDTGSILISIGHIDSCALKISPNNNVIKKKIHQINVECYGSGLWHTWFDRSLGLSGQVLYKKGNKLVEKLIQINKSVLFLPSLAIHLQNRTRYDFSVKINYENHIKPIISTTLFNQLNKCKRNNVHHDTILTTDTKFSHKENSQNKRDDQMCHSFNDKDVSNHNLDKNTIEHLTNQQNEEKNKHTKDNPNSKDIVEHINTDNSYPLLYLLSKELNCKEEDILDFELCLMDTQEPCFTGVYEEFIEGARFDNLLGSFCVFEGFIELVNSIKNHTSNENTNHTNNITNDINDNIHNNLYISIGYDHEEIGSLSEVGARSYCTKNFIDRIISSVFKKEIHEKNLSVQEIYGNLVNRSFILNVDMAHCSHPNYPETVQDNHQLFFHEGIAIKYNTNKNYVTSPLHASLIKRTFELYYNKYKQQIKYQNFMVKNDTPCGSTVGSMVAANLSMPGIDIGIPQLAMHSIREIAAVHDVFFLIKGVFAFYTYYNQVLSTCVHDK

Procathepsin L = Procathepsin L (Homo sapiens, UniProt P07711)
[24] = molecular target: T6, Induced myeloid leukemia cell differentiation protein Mcl-1 (Homo sapiens, UniProt Q07820); test: blockers of MCL1 binding to BIM peptide – biochemical, fluorescence polarization, BIM-BH3 peptide, 1536-well, dose response (AID 2217)
T6 sequence (Q07820 whole entry): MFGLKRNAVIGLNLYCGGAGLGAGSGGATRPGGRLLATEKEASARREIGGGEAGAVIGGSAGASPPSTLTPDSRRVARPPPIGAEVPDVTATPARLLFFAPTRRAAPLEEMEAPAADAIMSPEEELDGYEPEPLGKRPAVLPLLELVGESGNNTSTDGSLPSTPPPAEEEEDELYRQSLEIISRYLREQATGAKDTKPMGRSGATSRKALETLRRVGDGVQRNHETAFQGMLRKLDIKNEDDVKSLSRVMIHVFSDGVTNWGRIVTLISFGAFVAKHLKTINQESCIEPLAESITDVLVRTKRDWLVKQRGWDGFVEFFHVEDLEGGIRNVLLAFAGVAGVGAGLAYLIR

Bcl-2-like protein 1 = Bcl-2-like protein 1 (Homo sapiens, UniProt Q07817); test: blockers of BCLXL peptide binding – biochemical, fluorescence polarization, 1536-well, selectivity assay for MCL1 inhibitor project, dose response (AID 2218)
Chain of Bcl-2-like protein 1 (Q07817 whole entry): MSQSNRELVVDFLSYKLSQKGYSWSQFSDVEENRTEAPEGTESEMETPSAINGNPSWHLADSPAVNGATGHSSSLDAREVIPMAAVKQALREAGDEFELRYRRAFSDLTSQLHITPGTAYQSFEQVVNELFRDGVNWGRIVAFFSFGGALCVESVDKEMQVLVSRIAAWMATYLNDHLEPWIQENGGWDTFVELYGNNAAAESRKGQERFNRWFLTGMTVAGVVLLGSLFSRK

Cytochrome P450 2C19 = Cytochrome P450 2C19 (Homo sapiens, UniProt P33261); test: qHTS Assay for Inhibitors and Substrates of Cytochrome P450 2C19. [Related pubchem assays: 410 ]; type: ADME; settings: read-out: Potency
Cytochrome P450 2D6 = Cytochrome P450 2D6 (Homo sapiens, UniProt P10635); test: qHTS Assay for Inhibitors and Substrates of Cytochrome P450 2D6. [Related pubchem assays: 410 ]; type: ADME; settings: read-out: Potency
Cytochrome P450 2C9 = Cytochrome P450 2C9 (Homo sapiens, UniProt P11712); settings: Potency
Chaperone protein dnaK = Chaperone protein dnaK (Escherichia coli, UniProt C3TRK2); test: E. coli DnaK binders, calorimetric Kd – biophysical, isothermal titration calorimetry, beta-domain, full-length DnaK, orthogonal assay for DnaK modulator project, SAR follow-up (AID 1495)
Leucine aminopeptidase = molecular target: T7, Leucine aminopeptidase (Plasmodium falciparum 3D7, UniProt Q8IL11); test: P. falciparum M17LAP inhibitors, primary screen, biochemical, fluorogenic H-Leu-NHMec substrate, 1536-well (AID 1619); type: functional
T7 sequence (Q8IL11 whole entry): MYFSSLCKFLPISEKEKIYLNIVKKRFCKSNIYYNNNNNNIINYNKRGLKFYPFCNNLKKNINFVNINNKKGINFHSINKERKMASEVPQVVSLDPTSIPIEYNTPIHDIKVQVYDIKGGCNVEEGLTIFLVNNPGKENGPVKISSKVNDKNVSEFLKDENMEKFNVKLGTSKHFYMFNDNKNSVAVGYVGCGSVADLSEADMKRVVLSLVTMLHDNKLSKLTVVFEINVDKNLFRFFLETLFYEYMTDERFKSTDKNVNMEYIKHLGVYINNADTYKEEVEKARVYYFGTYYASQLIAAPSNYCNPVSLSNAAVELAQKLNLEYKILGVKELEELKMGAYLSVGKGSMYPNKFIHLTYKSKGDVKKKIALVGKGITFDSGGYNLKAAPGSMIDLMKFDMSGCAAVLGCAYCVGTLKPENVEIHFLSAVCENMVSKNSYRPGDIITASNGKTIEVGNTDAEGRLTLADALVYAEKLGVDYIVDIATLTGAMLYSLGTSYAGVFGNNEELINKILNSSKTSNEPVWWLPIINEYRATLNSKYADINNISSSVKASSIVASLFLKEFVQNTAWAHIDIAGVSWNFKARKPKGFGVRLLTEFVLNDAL

[25] = molecular target: T6, Induced myeloid leukemia cell differentiation protein Mcl-1; type: functional
[26] = molecular target: T8, Scavenger receptor class B member 1 (Mus musculus, UniProt Q61009); test: mouse SR-BI DiI-HDL uptake blockers – ldlA[mSR-BI] cells, fluorescence, cherry pick, dose response (AID 493194); type: functional, cell-based;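 also: cellular uptake of fluorescent DiI-labeled HDL measured as cell fluorescence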
T8 sequence (Q61009 whole entry): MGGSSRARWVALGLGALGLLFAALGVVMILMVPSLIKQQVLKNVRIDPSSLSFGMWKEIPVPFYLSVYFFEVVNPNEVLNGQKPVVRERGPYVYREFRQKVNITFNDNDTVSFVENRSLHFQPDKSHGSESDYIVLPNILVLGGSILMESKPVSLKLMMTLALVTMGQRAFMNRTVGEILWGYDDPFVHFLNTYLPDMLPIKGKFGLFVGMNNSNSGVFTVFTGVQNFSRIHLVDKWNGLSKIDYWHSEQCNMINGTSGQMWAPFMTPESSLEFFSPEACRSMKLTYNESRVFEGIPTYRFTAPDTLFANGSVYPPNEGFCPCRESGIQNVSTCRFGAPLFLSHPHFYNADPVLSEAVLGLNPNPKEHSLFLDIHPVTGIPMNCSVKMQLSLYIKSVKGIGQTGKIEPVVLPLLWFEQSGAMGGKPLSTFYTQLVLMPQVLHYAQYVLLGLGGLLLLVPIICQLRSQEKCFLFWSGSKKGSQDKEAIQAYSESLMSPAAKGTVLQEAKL

NC(=O)c1c(N)sc2c1CCCCCCCCCC2
Ki [1]: 39.8 µM (inactive)

O=C1C(Br)=C(c2ccccc2)C(c2ccccc2)=C1c1ccccc1
IC50 [2]: > 66.6 µM (inactive)
IC50 (Beta-galactosidase [3]): > 66.6 µM (inactive)
AC50 [4]: 0.46 µM (active)
AC50 [5]: 38.8 µM (active)
AC50 [6]: 4.75 µM (active)

Cc1cc(O)nc(-n2nc(C)cc2NC(=O)/C=C/c2ccccc2)n1
EC50 (Wee1-like protein kinase [7]): > 16.6 µM (active)
EC50 [8]: > 49.7 µM (inactive)

O=C(c1cc(-c2ccco2)nc2ccccc12)N1CCC(c2ccccc2)CC1
IC50 [9]: > 56.8 µM (inactive)

CCN1CCN(C(=O)c2ccc3c(c2)N(Cc2ccc(C)cc2)CCS3)CC1
IC50 [10]: > 14.6 µM (not active)

COc1ccc(C(=O)O/N=C(\N)c2ccccc2)cc1
EC50 [11]: 0.921 µM (active)
AC50 [12]: 37.7 µM (active)

O=C(O)c1ccc2c(c1)C(c1ccccc1)OC2=O (stereo unspecified)
EC50 [13]: > 10 µM (not active)

CCCCS(=O)(=O)/C=C\C=C/S(=O)(=O)CCCC
EC50 [14]: > 5.53 µM (active)
IC50 [15]: 4.5 µM (active)
CC50 (HeLa): 9.43 µM (active)
EC50 (Wee1-like protein kinase [16]): > 49.7 µM (not active)
EC50 (Beta-galactosidase [17]): > 40 µM (inactive)
EC50 [18]: 3.04 µM (active)
CC50 [19]: 3.13 µM (active)
IC50 [20]: 3.67 µM (active)
IC50 [21]: 1.28 µM (active)
IC50 [22]: 13.7 µM (not active)
IC50 [23]: 52.6 µM (inactive)
AC50 (INS1): 3.25 µM (active)

CC(C)n1c(SCC(=O)Nc2nncs2)nnc1-c1ccco1
IC50 (Aspartyl aminopeptidase): 4.68 µM (active)
IC50 (Procathepsin L): > 59.6 µM (not active)
IC50 [24]: 18.1 µM (not active)
IC50 (Bcl-2-like protein 1): > 109 µM (not active)

CCCCCCC#Cc1cc(OC)c(OC)cc1C(N1CC(C)c2ccccc21)N1CC(C)c2ccccc21 (stereo unspecified)
AC50 (Cytochrome P450 2C19): 3.98 µM (inconclusive)
AC50 (Cytochrome P450 2D6): 7.94 µM (inconclusive)
AC50 (Cytochrome P450 2C9): 3.16 µM (inconclusive)

O=C(NCc1cccc2ccccc12)c1cccs1
Kd (Chaperone protein dnaK): 1.7 µM (active)

CC1CCc2c(sc(Nc3nc4c(F)cccc4s3)c2C(N)=O)C1 (stereo unspecified)
IC50 (Leucine aminopeptidase): 18 µM (active)
IC50 [25]: 3.83 µM (active)
AC50 [26]: 10.9 µM (active)
